In patent publication US9006487B2, “Amine-containing lipids and uses thereof” (Massachusetts Institute of Technology, priority 2005, dated 2015):
Where “and” joins values, the source holds several entries; their conditions need not be identical. Equal values may be shown once.

Tested on: cos-7 cells
Assay: DNA transfection: luciferase expression relative to Lipofectamine 2000
Type: cell-based
Settings: for Luciferase expression as a percentage of that achieved using Lipofectamine 2000: 300 ng Luciferase DNA per well; for Luciferase expression as a percentage of that achieved using Lipofectamine 2000 / % of the luciferase activity obtained from the use of Lipofectamine 2000: luciferase assay after 48 hours; for luciferase expression (second part of table, values relative to LIPO2000): 300 ng of DNA per well; for % of the luciferase activity obtained from the use of Lipofectamine 2000: 300 ng DNA per well
In short: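 Lipid/DNA complexes, 300 ng luciferase DNA per well at 2.5-25 w/w lipid:DNA, were formed in sodium acetate/Optimem and added to overnight-seeded cos-7 cells. Luciferase was measured by Bright-Glo luminescence after 48 hours and quantified against an enzyme standard curve. Values are expressed as % of Lipofectamine 2000 at 2.5 w/w.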

Compound	Luciferase expression as a percentage of that achieved using Lipofectamine 2000 (lipid/DNA 10 w/w)	Luciferase expression as a percentage of that achieved using Lipofectamine 2000 (lipid/DNA 15 w/w)	luciferase expression (second part of table, values relative to LIPO2000) (lipid/DNA 10 w/w)	luciferase expression (second part of table, values relative to LIPO2000) (lipid/DNA 15 w/w)	Luciferase expression as a percentage of that achieved using Lipofectamine 2000 (lipid/DNA 2.5 w/w)	Luciferase expression as a percentage of that achieved using Lipofectamine 2000 (lipid/DNA 5 w/w)	Luciferase expression as a percentage of that achieved using Lipofectamine 2000 (lipid/DNA 20 w/w)	Luciferase expression as a percentage of that achieved using Lipofectamine 2000 (lipid/DNA 25 w/w)	% of the luciferase activity obtained from the use of Lipofectamine 2000 (2.5 w/w lipid to DNA)	% of the luciferase activity obtained from the use of Lipofectamine 2000 (5 w/w lipid to DNA)	% of the luciferase activity obtained from the use of Lipofectamine 2000 (10 w/w lipid to DNA)	% of the luciferase activity obtained from the use of Lipofectamine 2000 (15 w/w lipid to DNA)	% of the luciferase activity obtained from the use of Lipofectamine 2000 (20 w/w lipid to DNA)	% of the luciferase activity obtained from the use of Lipofectamine 2000 (25 w/w lipid to DNA)
CCCCCCCCCCCCOC(=O)CCN(CCC(=O)OCCCCCCCCCCCC)CCN(CCO)CCO [LD86]	29.6%	16.0%												
CCCCCCCCCCCCOC(=O)CCN(CCCN(CCO)CCO)CCC(=O)OCCCCCCCCCCCC [LD87]	53.9%	43.3%	53.9	43.3										
CCCCCCCCCCCCOC(=O)CCN(CCC(=O)OCCCCCCCCCCCC)CCN1CCOCC1 [LD90]	0.4%	0.6% and 0.4%			0.5% and 0.4%	0.4%	0.4% and 0.5%	0.4% and 0.5%						
CCCCCCCCCCCCOC(=O)CCN(CCCN1CCOCC1)CCC(=O)OCCCCCCCCCCCC [LD91]	0.2%	0.2%			0.2%	0.2%	0.2%	0.2%						
CCCCCCCCCCCCOC(=O)CCN(CCCn1ccnc1)CCC(=O)OCCCCCCCCCCCC [LD93]	3.9%	24.6%			1.8%	4.2%	15.8%	10.8%						
CCCCCCCCCCCCOC(=O)CCN(CCC(=O)OCCCCCCCCCCCC)CCc1c[nH]cn1 [LD94]	2.0%	8.5%			1.5%	5.9%	9.2%	7.3%						
CCCCCCCCCCCCOC(=O)CCN(C)CCN(CCC(=O)OCCCCCCCCCCCC)CCC(=O)OCCCCCCCCCCCC [LD95]	3.6%	9.1%			1.2%	19.5%	9.4%	5.9%						
CCCCCCCCCCCCOC(=O)CCN(CCO)CCN(CCO)CCC(=O)OCCCCCCCCCCCC [LD103]	24.4%	27.1%			11.6%	17.2%	12.3%	6.6%						
CCCCCCCCCCCCCOC(=O)CCN(CCOCCO)CCC(=O)OCCCCCCCCCCCCC [LE31]	0.9%	2.5%			1.0%	1.0%	2.9%	9.5%						
CCCCCCCCCCCCCOC(=O)CCN(CC)CCCN(CC)CCC(=O)OCCCCCCCCCCCCC [LE64]	0.1%	0.0%			0.1%	0.1%	0.1%	0.1%						
CCCCCCCCCCCCCOC(=O)CCN(CCC(=O)OCCCCCCCCCCCCC)CCN(CCO)CCO [LE86]									31.1%	22.7%	22.6%	2.5%	0.0%	0.0%
CCCCCCCCCCCCCOC(=O)CCN(CCC(=O)OCCCCCCCCCCCCC)CCN1CCOCC1 [LE90]	0.4%	0.4%			0.5%	0.3%	0.4%	0.4%						
CCCCCCCCCCCCCCOC(=O)CCN(CCCOC)CCC(=O)OCCCCCCCCCCCCCC [LF1]	0.0%	0.0%			0.1%	0.1%	0.1%	0.1%						
CCCCCCCCCCCCCCOC(=O)CCN(CCC(=O)OCCCCCCCCCCCCCC)CC1COC(C)(C)O1 (stereo not drawn) [LF7]	0.0%	0.0%			0.1%	0.1%	0.1%	0.1%						
CCCCCCCCCCCCCCOC(=O)CCN(CCOC)CCC(=O)OCCCCCCCCCCCCCC [LF10]	0.0%	0.0%			0.1%	0.1%	0.1%	0.1%						
CCCCCCCCCCCCCCOC(=O)CCN(CCOCC)CCC(=O)OCCCCCCCCCCCCCC [LF11]	0.0%	0.0%			0.1%	0.1%	0.1%	0.1%						
CCCCCCCCCCCCCCOC(=O)CCN(CCC(=O)OCCCCCCCCCCCCCC)CC(OC)OC [LF13]	0.0%	0.0%			0.1%	0.1%	0.1%	0.1%						
CCCCCCCCCCCCCCOC(=O)CCN(CCC(=O)OCCCCCCCCCCCCCC)CC1CCCO1 (stereo not drawn) [LF15]	0.0%	0.0%			0.1%	0.1%	0.1%	0.1%						
CCCCCCCCCCCCCCOC(=O)CCN(CCC(=O)OCCCCCCCCCCCCCC)CCc1ccc(OC)c(OC)c1 [LF17]	0.1%	0.1%			0.1%	0.1%	0.1%	0.1%						
CCCCCCCCCCCCCCOC(=O)CCN(CCCO)CCC(=O)OCCCCCCCCCCCCCC [LF20]	0.3%	0.2%			0.2%	0.4%	0.1%	0.1%						
CCCCCCCCCCCCCCOC(=O)CCN(CCC(=O)OCCCCCCCCCCCCCC)C[C@@H](C)O [LF21]	0.4%	0.4%			0.4%	0.4%	0.4%	0.4%						
